Drawing on patent US7709471B2, “Compounds” (AstraZeneca AB, priority 2006, dated 2010), this text covers IC50 for 25 molecules.

The experiment has as its system human colon tumour cell line HT29. Put plainly: Cellular Assay (phosphohistone H3 Ser10 mitotic marker, HT29). The class given is cell-based. To be noted: read-out: IC50 (cellular assay, phosphohistone H3).

The term IC50 denotes the point on the concentration scale where inhibition reaches its midpoint.

Like-named read-outs stand apart in the source and are kept apart here.

Method: Chromosome condensation in mitosis is accompanied by phosphorylation of histone H3 on serine 10.
After 24 hours, cells were fixed in 3.7% (v/v) formaldehyde then permeabilised and blocked for 10 minutes in 100 μl 0.5% (v/v) Triton X-100, 1% (w/v) bovine serum albumin (BSA) in phosphate buffered saline (PBS). […] The raw assay data were analysed by non-linear regression analysis and used to determine an IC50 value for each compound.

In the case of `COc1cc(C(=O)NCC2(CN3CCCC3)CC2)c(F)cc1Nc1ncc2c(n1)N(C1CCCCC1)CCC(=O)N2C` [Example 419, 4-[(2-cyclohexyl-6-methyl-5-oxo-2,6,9,11-tetrazabicyclo[5.4.0]undeca-7,9,11-trien-10-yl)amino]-2-fluoro-5-methoxy-N-[[1-(pyrrolidin-1-ylmethyl)cyclopropyl]methyl]benzamide], the IC50 (HT-29, 24 h, HT29 cells) is less than 1 µM.

`CCN1CCC(NC(=O)c2ccc(Nc3ncc4c(n3)N(C3CCCCC3)CCC(=O)N4C)c(OC)c2)CC1` [Example 423, 4-[(2-cyclohexyl-6-methyl-5-oxo-2,6,9,11-tetrazabicyclo[5.4.0]undeca-7,9,11-trien-10-yl)amino]-N-(1-ethyl-4-piperidyl)-3-methoxy-benzamide]: for the setting “HT-29, 24 h, HT29 cells”, the IC50 was less than 0.3 µM.

Turning to `COc1cc(C(=O)N[C@@H]2CCN(C)C2)c(Cl)cc1Nc1ncc2c(n1)N(C1CCCC1)CCC(=O)N2C` [Example 336, 2-chloro-4-[(2-cyclopentyl-6-methyl-5-oxo-2,6,9,11-tetrazabicyclo[5.4.0]undeca-7,9,11-trien-10-yl)amino]-5-methoxy-N-[(3R)-1-methylpyrrolidin-3-yl]benzamide], where the note is “HT-29, 24 h, HT29 cells”, the IC50 is less than 0.3 µM.

With `CCN1CCC(NC(=O)c2cc(OC)c(Nc3ncc4c(n3)N(C3CCCC3)CCC(=O)N4C)cc2Cl)CC1` [Example 337, 2-chloro-4-[(2-cyclopentyl-6-methyl-5-oxo-2,6,9,11-tetrazabicyclo[5.4.0]undeca-7,9,11-trien-10-yl)amino]-N-(1-ethyl-4-piperidyl)-5-methoxy-benzamide], the IC50 (HT-29, 24 h, HT29 cells) is less than 0.3 µM.

As for `COc1cc(C(=O)NC2CCC(N3CCC3)CC2)ccc1Nc1ncc2c(n1)N(C1CCCC1)CCC(=O)N2C` (stereo not shown) [Example 346, N-[4-(azetidin-1-yl)cyclohexyl]-4-[(2-cyclopentyl-6-methyl-5-oxo-2,6,9,11-tetrazabicyclo[5.4.0]undeca-7,9,11-trien-10-yl)amino]-3-methoxy-benzamide], for the setting “HT-29, 24 h, HT29 cells”, the IC50 is less than 0.3 µM.

Take `CN1CCC(NC(=O)c2ccc(Nc3ncc4c(n3)N(C3CCCCC3)CC3(CC3)C(=O)N4C)c(F)c2)CC1` [Example 446, 4-(9′-cyclohexyl-5′-methyl-6′-oxo-5′,6′,8′,9′-tetrahydrospiro[cyclopropane-1,7′-pyrimido[5,4-b][1,4]diazepine]-2′-ylamino)-3-fluoro-N-(1-methyl-4-piperidyl)benzamide]: the IC50 (HT-29, 24 h, HT29 cells) is less than 0.3 µM.

`CN(C)CCNC(=O)c1ccc(Nc2ncc3c(n2)N(C2CCCC2)CC2(CC2)C(=O)N3C)c(Cl)c1` [Example 390, 3-chloro-4-(9′-cyclopentyl-5′-methyl-6′-oxo-5′,6′,8′,9′-tetrahydrospiro[cyclopropane-1,7′-pyrimido[5,4-b][1,4]diazepine]-2′-ylamino)-N-(2-dimethylaminoethyl)benzamide]: the IC50 (HT-29, 24 h, HT29 cells) is less than 1 µM.

For `COc1cc(C(=O)NCC2(CN3CCCC3)CC2)c(F)cc1Nc1ncc2c(n1)N(C1CCCC1)CC1(CC1)C(=O)N2C` [Example 405, 4-(9′-cyclopentyl-5′-methyl-6′-oxo-5′,6′,8′,9′-tetrahydrospiro[cyclopropane-1,7′-pyrimido[5,4-b][1,4]diazepine]-2′-ylamino)-2-fluoro-5-methoxy-N-[[1-(pyrrolidin-1-ylmethyl)cyclopropyl]methyl]benzamide], where the note is “HT-29, 24 h, HT29 cells”, the IC50 is less than 1 µM.

Consider `COc1cc(C(=O)NCCN(C)C)ccc1Nc1ncc2c(n1)N(C1CCCCC1)CCC(=O)N2C` [Example 426, 4-[(2-cyclohexyl-6-methyl-5-oxo-2,6,9,11-tetrazabicyclo[5.4.0]undeca-7,9,11-trien-10-yl)amino]-N-(2-dimethylaminoethyl)-3-methoxy-benzamide], for which, under “HT-29, 24 h, HT29 cells”, the IC50 is less than 0.3 µM.

Turning to `CN1CCC(NC(=O)c2cc(F)c(Nc3ncc4c(n3)N(C3CCCC3)CC3(CC3)C(=O)N4C)cc2F)CC1` [Example 396, 4-(9′-cyclopentyl-5′-methyl-6′-oxo-5′,6′,8′,9′-tetrahydrospiro[cyclopropane-1,7′-pyrimido[5,4-b][1,4]diazepine]-2′-ylamino)-2,5-difluoro-N-(1-methyl-4-piperidyl)benzamide], the half-maximal inhibitory concentration (IC50) (HT-29, 24 h, HT29 cells) was less than 0.3 µM.

Consider `COc1cc(C(=O)N[C@@H]2CCN(C)C2)c(F)cc1Nc1ncc2c(n1)N(C1CCCCC1)CCC(=O)N2C` [Example 420, 4-[(2-cyclohexyl-6-methyl-5-oxo-2,6,9,11-tetrazabicyclo[5.4.0]undeca-7,9,11-trien-10-yl)amino]-2-fluoro-5-methoxy-N-[(3R)-1-methylpyrrolidin-3-yl]benzamide], for which the IC50 (HT-29, 24 h, HT29 cells) is less than 0.3 µM.

As to `CC(C)N1CC2(CC2)C(=O)N(C)c2cnc(Nc3cc(F)c(C(=O)N[C@@H]4CCN(C)C4)cc3Cl)nc21` [Example 310, (R)-5-chloro-2-fluoro-4-(9′-isopropyl-5′-methyl-6′-oxo-5′,6′,8′,9′-tetrahydrospiro[cyclopropane-1,7′-pyrimido[5,4-b][1,4]diazepine]-2′-ylamino)-N-(1-methylpyrrolidin-3-yl)benzamide], for the setting “HT-29, 24 h, HT29 cells”, the IC50 is less than 1 µM.

For `CCN1CCC(NC(=O)c2cc(F)c(Nc3ncc4c(n3)N(C3CCCCC3)CCC(=O)N4C)cc2F)CC1` [Example 415, 4-[(2-cyclohexyl-6-methyl-5-oxo-2,6,9,11-tetrazabicyclo[5.4.0]undeca-7,9,11-trien-10-yl)amino]-N-(1-ethyl-4-piperidyl)-2,5-difluoro-benzamide], the IC50 (HT-29, 24 h, HT29 cells) is less than 0.3 µM.

For the molecule `COc1cc(C(=O)NC2CCN(CC(C)C)CC2)ccc1Nc1ncc2c(n1)N(C1CCCC1)CCC(=O)N2C` [Example 340, 4-[(2-cyclopentyl-6-methyl-5-oxo-2,6,9,11-tetrazabicyclo[5.4.0]undeca-7,9,11-trien-10-yl)amino]-3-methoxy-N-[1-(2-methylpropyl)-4-piperidyl]benzamide], the IC50 (HT-29, 24 h, HT29 cells) is less than 0.3 µM.

`COc1cc(C(=O)NC2CCN(C)CC2)c(F)cc1Nc1ncc2c(n1)N(C1CCCC1)CC(C)(C)C(=O)N2C` [Example 361, 4-[(2-cyclopentyl-4,4,6-trimethyl-5-oxo-2,6,9,11-tetrazabicyclo[5.4.0]undeca-7,9,11-trien-10-yl)amino]-2-fluoro-5-methoxy-N-(1-methyl-4-piperidyl)benzamide]: the IC50 (HT-29, 24 h, HT29 cells) is less than 0.3 µM.

Regarding `COc1cc(C(=O)NCCN(C)C)ccc1Nc1ncc2c(n1)N(C1CCCC1)CC(C)(C)C(=O)N2C` [Example 359, 4-[(2-cyclopentyl-4,4,6-trimethyl-5-oxo-2,6,9,11-tetrazabicyclo[5.4.0]undeca-7,9,11-trien-10-yl)amino]-N-(2-dimethylaminoethyl)-3-methoxy-benzamide], under “HT-29, 24 h, HT29 cells”, the 50% inhibitory concentration (IC50) was less than 0.3 µM.

In the case of `COc1cc(C(=O)NCCN2CCCC2)c(F)cc1Nc1ncc2c(n1)N(C1CCCCC1)CCC(=O)N2C` [Example 425, 4-[(2-cyclohexyl-6-methyl-5-oxo-2,6,9,11-tetrazabicyclo[5.4.0]undeca-7,9,11-trien-10-yl)amino]-2-fluoro-5-methoxy-N-(2-pyrrolidin-1-ylethyl)benzamide], where the note is “HT-29, 24 h, HT29 cells”, the IC50 was less than 0.3 µM.

Take `COc1cc(C(=O)NCCN2CCCC2)c(F)cc1Nc1ncc2c(n1)N(C1CCCC1)CC1(CC1)C(=O)N2C` [Example 398, 4-(9′-cyclopentyl-5′-methyl-6′-oxo-5′,6′,8′,9′-tetrahydrospiro[cyclopropane-1,7′-pyrimido[5,4-b][1,4]diazepine]-2′-ylamino)-2-fluoro-5-methoxy-N-(2-pyrrolidin-1-ylethyl)benzamide]: where the note is “HT-29, 24 h, HT29 cells”, the IC50 is less than 0.3 µM.

In the case of `COc1cc(C(=O)NCC(C)(C)CN2CCCC2)ccc1Nc1ncc2c(n1)N(C1CCCC1)CC(C)(C)C(=O)N2C` [Example 368, 4-[(2-cyclopentyl-4,4,6-trimethyl-5-oxo-2,6,9,11-tetrazabicyclo[5.4.0]undeca-7,9,11-trien-10-yl)amino]-N-(2,2-dimethyl-3-pyrrolidin-1-yl-propyl)-3-methoxy-benzamide], the IC50 (HT-29, 24 h, HT29 cells) is less than 0.3 µM.

Turning to `COc1cc(C(=O)N[C@@H]2CCN(C)C2)c(F)cc1Nc1ncc2c(n1)N(C(C)C)CC(C)(C)C(=O)N2C` [Example 292, 2-fluoro-5-methoxy-N-[(3R)-1-methylpyrrolidin-3-yl]-4-[(4,4,6-trimethyl-5-oxo-2-propan-2-yl-2,6,9,11-tetrazabicyclo[5.4.0]undeca-7,9,11-trien-10-yl)amino]benzamide], for the setting “HT-29, 24 h, HT29 cells”, the IC50 was less than 0.3 µM.

On to `CCOc1cc(C(=O)NC2CCC(N(C)C)CC2)ccc1Nc1ncc2c(n1)N(C(C)C)CC(C)(C)C(=O)N2C` (stereo not shown) [Example 294, N-(4-dimethylaminocyclohexyl)-3-ethoxy-4-[(4,4,6-trimethyl-5-oxo-2-propan-2-yl-2,6,9,11-tetrazabicyclo[5.4.0]undeca-7,9,11-trien-10-yl)amino]benzamide], for which the IC50 (HT-29, 24 h, HT29 cells) is less than 1 µM.

In the case of `CCN1CCC(NC(=O)c2cc(OC)c(Nc3ncc4c(n3)N(C3CCCC3)CC(CC)(CC)C(=O)N4C)cc2F)CC1` [Example 379, 4-[(2-cyclopentyl-4,4-diethyl-6-methyl-5-oxo-2,6,9,11-tetrazabicyclo[5.4.0]undeca-7,9,11-trien-10-yl)amino]-N-(1-ethyl-4-piperidyl)-2-fluoro-5-methoxy-benzamide], where the note is “HT-29, 24 h, HT29 cells”, the concentration for half-maximal inhibition (IC50) was less than 0.3 µM.

Consider `CN(C)CCCNC(=O)c1ccc(Nc2ncc3c(n2)N(C2CCCC2)CC(C)(C)C(=O)N3C)c(Cl)c1` [Example 362, 3-chloro-4-[(2-cyclopentyl-4,4,6-trimethyl-5-oxo-2,6,9,11-tetrazabicyclo[5.4.0]undeca-7,9,11-trien-10-yl)amino]-N-(3-dimethylaminopropyl)benzamide], for which, where the note is “HT-29, 24 h, HT29 cells”, the IC50 was less than 0.3 µM.

On to `COc1cc(C(=O)NCC(C)(C)CN(C)C)ccc1Nc1ncc2c(n1)N(C(C)C)CC1(CC1)C(=O)N2C` [Example 313, N-(3-(dimethylamino)-2,2-dimethylpropyl)-4-(9′-isopropyl-5′-methyl-6′-oxo-5′,6′,8′,9′-tetrahydrospiro[cyclopropane-1,7′-pyrimido[5,4-b][1,4]diazepine]-2′-ylamino)-3-methoxybenzamide], for which the IC50 (HT-29, 24 h, HT29 cells) is less than 0.3 µM.

As for `CN1CCC(NC(=O)c2ccc(Nc3ncc4c(n3)N(C3CCCC3)CCC(=O)N4C)cc2)CC1` [Example 2, 4-[(2-cyclopentyl-6-methyl-5-oxo-2,6,9,11-tetrazabicyclo[5.4.0]undeca-8,10,12-trien-10-yl)amino]-N-(1-methyl-4-piperidyl)benzamide], the IC50 (HT-29, HT29 cells, 24 h) is less than 0.3 µM.
